Assay results taken from ChEMBL document CHEMBL1201862, “PubChem BioAssay data set” (2004).
Activity calls are given as the source filed them.

Tests used:
[1] = biological target: Melanin-concentrating hormone receptor 1 (Homo sapiens, UniProt Q99705); experiment: Late-stage fluorescence-based counterscreen for antagonists of the G-protein coupled receptor 7 (GPR7): cell-based dose response assay to identify antagonists of the melanin-concentrating hormone receptor 1 (MCHR1) Set 5.; format: functional
[2] = biological target: Serine/threonine-protein kinase pim-1 (Homo sapiens, UniProt P11309); format: functional
[3] = biological target: Calcium/calmodulin-dependent protein kinase type II subunit beta (Homo sapiens, UniProt Q13554); format: functional
[4] = biological target: Protein kinase C gamma type (Homo sapiens, UniProt P05129); format: functional
[5] = biological target: Protein kinase C zeta type (Homo sapiens, UniProt Q05513); format: functional;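 further: measured as one member of a broad kinase profiling panel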
[6] = biological target: G protein-coupled receptor kinase 5 (Homo sapiens, UniProt P34947); experiment: Navigating the Kinome. Panel member name: GPRK5; format: functional
[7] = biological target: MAP kinase-activated protein kinase 3 (Homo sapiens, UniProt Q16644); format: functional;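 further: value comes from a kinome-wide profiling panel in which MAPKAPK3 is one of the panel members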
HEK293 [8] = experiment: cytotoxicity in HEK293T NF-kB-Luc cells, SAR follow-up, cytotoxicity control for NF-kB activator project, cell-based, resazurin fluorescence (AID 493251); format: functional; settings: Homo sapiens
Jurkat = experiment: SAR Analysis of small molecule inhibitors of both B-cell and T-cell specific antigen receptor-induced NF-kB activation in a Jurkat cell line using a luminescence assay. [Related pubchem assays (depositor defined):AID435003, AID435022, AID465, AID489029]; format: functional, cell-based; settings: Homo sapiens
HEK293 [9] = experiment: SAR Analysis of small molecule inhibitors of both B-cell and T-cell specific antigen receptor-induced NF-kB activation in a HEK-293T cell line using a luminescence assay. [Related pubchem assays (depositor defined):AID435003, AID435022, AID465, AID489019, AID489029]; format: functional, cell-based; settings: Homo sapiens
Wee1-like protein kinase = Wee1-like protein kinase (Homo sapiens, UniProt P30291); experiment: Navigating the Kinome. Panel member name: WEE1; format: functional
[10] = biological target: ALK tyrosine kinase receptor (Homo sapiens, UniProt Q9UM73); format: functional;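 further: ALK tested as one member of a kinase panel screen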
[11] = biological target: Serine/threonine-protein kinase D3 (Homo sapiens, UniProt O94806); format: functional;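 further: determined within a kinase panel screen, with PRKCN as the panel member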
[12] = biological target: Platelet-derived growth factor receptor alpha (Homo sapiens, UniProt P16234); experiment: Navigating the Kinome. Panel member name: PDGFRA; format: functional
[13] = biological target: Mitogen-activated protein kinase 9 (Homo sapiens, UniProt P45984); format: functional;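 further: value from a kinome panel profiling assay, MAPK9 panel entry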
[14] = biological target: Calcium/calmodulin-dependent protein kinase type II subunit alpha (Homo sapiens, UniProt Q9UQM7); experiment: Navigating the Kinome. Panel member name: CAMK2A; format: functional
[15] = biological target: Proto-oncogene tyrosine-protein kinase receptor Ret (Homo sapiens, UniProt P07949); format: functional;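 further: measured within a kinome-wide profiling panel, RET as the panel member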
[16] = biological target: Latent membrane protein 1 (Human herpesvirus 4 (strain B95-8), UniProt P03230); experiment: TES1-eGFP NF-kB reporter inhibition versus Tet-On dsRED, dose response, selectivity assay for LMP1 NF-kB inhibitor project, imaging, HEK293T, dual-color eGFP/dsRED, cherry-picks (AID 588398); format: functional, cell-based
Nonstructural protein 1 = Nonstructural protein 1 (Influenza A virus, UniProt Q194T2); format: functional, Influenza A virus (A/California/07/2009(H1N1))
Hexokinase HKDC1 = biological target: T1, Hexokinase HKDC1 (Homo sapiens, UniProt Q2TB90); experiment: HKDC1 hexokinase activators, dose response, biochemical, W721R variant (AID 504730); format: functional
T1 sequence (Q2TB90 whole entry): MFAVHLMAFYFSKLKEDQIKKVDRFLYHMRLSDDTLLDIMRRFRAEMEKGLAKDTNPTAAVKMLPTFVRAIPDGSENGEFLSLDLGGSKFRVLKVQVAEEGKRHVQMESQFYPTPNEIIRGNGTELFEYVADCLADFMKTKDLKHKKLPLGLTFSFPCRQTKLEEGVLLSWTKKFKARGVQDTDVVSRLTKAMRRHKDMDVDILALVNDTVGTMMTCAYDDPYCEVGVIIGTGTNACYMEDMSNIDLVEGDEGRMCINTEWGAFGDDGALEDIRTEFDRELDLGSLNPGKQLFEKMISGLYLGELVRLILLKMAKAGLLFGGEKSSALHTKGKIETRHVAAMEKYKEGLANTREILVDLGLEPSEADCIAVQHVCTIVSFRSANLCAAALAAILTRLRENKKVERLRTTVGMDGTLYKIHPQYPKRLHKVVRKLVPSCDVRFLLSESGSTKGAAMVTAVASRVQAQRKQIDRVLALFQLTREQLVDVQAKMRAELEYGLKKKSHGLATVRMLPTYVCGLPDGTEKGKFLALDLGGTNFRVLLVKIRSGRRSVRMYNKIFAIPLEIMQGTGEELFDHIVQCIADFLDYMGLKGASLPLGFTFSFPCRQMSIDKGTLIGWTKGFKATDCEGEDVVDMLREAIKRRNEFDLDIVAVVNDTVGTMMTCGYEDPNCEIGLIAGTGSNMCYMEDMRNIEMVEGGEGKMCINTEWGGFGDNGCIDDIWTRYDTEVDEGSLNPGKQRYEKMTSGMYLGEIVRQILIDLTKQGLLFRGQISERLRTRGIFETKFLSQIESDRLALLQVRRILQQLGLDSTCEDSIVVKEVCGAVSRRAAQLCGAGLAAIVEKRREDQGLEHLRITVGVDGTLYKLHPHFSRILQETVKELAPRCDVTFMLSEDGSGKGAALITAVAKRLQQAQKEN

Hexokinase-1 = Hexokinase-1 (Homo sapiens, UniProt P19367); experiment: hexokinase 1 activators, dose response, selectivity assay for HKDC1 activator project, biochemical (AID 504762); format: functional
[17] = A High Throughput Confirmatory Assay used to Identify Novel Compounds that Inhibit Mycobacterium Tuberculosis in the absence of Glycerol using Purified and Synthesized Compounds (3).; format: functional
[18] = biological target: T2, Sentrin-specific protease 7 (Homo sapiens, UniProt Q9BQF6); experiment: SENP7 protease inhibitors, SAR follow-up, biochemical, luminescence, set 2 (AID 588600); format: functional
T2 sequence (Q9BQF6 whole entry): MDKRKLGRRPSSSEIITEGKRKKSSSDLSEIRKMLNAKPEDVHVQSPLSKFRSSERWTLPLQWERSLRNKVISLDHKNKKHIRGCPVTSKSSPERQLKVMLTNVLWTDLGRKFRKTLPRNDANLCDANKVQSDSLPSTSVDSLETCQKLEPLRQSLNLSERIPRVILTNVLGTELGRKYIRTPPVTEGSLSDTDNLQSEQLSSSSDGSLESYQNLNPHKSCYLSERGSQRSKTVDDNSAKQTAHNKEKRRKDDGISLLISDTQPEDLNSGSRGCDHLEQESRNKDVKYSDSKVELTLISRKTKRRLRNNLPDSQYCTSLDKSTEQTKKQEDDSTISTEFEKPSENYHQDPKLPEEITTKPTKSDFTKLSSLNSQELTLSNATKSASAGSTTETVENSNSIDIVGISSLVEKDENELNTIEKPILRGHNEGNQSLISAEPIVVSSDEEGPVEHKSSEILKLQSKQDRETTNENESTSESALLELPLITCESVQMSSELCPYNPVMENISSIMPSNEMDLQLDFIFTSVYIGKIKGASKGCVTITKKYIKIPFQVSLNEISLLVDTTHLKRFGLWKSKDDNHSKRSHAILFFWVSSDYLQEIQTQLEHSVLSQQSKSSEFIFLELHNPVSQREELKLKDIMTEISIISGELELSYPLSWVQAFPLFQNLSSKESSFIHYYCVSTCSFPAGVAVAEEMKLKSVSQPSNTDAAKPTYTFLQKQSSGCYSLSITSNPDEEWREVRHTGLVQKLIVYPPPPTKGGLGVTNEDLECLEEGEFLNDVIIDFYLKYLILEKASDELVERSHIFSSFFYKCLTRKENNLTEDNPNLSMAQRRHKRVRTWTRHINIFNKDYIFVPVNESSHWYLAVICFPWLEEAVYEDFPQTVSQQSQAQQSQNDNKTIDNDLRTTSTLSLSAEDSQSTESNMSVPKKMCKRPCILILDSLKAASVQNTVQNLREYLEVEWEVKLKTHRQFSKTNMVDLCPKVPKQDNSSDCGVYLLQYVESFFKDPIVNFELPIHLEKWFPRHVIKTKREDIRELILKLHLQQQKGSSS

[19] = biological target: T3, Sentrin-specific protease 6 (Homo sapiens, UniProt Q9GZR1); experiment: SENP6 protease inhibitors, SAR follow-up, biochemical, luminescence, set 2 (AID 588598); format: functional
T3 sequence (Q9GZR1 whole entry): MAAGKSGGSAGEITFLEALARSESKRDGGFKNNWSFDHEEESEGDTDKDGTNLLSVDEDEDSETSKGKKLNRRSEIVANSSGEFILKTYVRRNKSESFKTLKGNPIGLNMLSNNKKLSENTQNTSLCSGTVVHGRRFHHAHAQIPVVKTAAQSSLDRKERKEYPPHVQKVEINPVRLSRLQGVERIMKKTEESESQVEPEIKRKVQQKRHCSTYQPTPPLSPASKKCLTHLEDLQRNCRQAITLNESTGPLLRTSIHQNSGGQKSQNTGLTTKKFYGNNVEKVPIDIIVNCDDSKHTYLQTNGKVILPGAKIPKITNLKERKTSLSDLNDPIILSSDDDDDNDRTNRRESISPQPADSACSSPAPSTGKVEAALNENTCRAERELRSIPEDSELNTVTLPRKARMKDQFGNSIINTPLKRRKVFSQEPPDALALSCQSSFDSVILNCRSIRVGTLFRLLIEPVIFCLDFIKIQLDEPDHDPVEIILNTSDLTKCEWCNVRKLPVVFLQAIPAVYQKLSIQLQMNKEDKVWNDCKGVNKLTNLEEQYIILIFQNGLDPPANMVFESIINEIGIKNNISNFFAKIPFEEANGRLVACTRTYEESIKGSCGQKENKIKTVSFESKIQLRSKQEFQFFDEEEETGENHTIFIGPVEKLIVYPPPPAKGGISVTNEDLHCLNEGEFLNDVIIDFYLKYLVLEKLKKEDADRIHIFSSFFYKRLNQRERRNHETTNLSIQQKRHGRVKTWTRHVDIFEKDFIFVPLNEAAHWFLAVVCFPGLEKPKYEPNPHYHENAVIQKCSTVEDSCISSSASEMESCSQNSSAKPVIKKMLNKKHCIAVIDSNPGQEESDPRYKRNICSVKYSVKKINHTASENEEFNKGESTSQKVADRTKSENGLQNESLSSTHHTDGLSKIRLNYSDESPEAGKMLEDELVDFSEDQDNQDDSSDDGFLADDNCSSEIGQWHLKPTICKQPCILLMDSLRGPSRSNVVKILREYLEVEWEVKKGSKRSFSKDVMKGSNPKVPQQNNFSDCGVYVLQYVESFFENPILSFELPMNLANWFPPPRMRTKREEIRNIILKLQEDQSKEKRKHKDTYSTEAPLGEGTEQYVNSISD

Caspase-3 = biological target: T4, Caspase-3 (Homo sapiens, UniProt P42574); experiment: caspase-3 inhibitors as off-family protease, SAR follow-up, selectivity assay for SENP protease inhibitor project, biochemical, luminescence, set 2 (AID 588599); format: functional
T4 sequence (P42574 whole entry): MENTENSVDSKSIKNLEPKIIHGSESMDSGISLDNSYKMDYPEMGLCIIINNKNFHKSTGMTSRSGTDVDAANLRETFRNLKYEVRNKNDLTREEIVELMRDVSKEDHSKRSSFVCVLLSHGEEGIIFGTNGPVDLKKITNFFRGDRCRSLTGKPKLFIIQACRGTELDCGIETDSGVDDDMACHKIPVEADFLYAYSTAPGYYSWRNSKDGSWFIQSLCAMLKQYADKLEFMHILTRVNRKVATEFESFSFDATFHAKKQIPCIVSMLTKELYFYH

[20] = biological target: T5, Sentrin-specific protease 8 (Homo sapiens, UniProt Q96LD8); experiment: SENP8 protease inhibitors, SAR follow-up, biochemical, luminescence, set 2 (AID 588601); format: functional
T5 sequence (Q96LD8 whole entry): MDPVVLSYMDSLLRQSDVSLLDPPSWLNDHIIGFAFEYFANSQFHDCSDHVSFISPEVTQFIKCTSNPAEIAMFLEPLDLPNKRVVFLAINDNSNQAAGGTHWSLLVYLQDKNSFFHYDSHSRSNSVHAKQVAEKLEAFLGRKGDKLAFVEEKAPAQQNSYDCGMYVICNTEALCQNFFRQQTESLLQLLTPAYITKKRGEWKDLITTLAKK

Hexokinase-1, sequence (P19367 whole entry): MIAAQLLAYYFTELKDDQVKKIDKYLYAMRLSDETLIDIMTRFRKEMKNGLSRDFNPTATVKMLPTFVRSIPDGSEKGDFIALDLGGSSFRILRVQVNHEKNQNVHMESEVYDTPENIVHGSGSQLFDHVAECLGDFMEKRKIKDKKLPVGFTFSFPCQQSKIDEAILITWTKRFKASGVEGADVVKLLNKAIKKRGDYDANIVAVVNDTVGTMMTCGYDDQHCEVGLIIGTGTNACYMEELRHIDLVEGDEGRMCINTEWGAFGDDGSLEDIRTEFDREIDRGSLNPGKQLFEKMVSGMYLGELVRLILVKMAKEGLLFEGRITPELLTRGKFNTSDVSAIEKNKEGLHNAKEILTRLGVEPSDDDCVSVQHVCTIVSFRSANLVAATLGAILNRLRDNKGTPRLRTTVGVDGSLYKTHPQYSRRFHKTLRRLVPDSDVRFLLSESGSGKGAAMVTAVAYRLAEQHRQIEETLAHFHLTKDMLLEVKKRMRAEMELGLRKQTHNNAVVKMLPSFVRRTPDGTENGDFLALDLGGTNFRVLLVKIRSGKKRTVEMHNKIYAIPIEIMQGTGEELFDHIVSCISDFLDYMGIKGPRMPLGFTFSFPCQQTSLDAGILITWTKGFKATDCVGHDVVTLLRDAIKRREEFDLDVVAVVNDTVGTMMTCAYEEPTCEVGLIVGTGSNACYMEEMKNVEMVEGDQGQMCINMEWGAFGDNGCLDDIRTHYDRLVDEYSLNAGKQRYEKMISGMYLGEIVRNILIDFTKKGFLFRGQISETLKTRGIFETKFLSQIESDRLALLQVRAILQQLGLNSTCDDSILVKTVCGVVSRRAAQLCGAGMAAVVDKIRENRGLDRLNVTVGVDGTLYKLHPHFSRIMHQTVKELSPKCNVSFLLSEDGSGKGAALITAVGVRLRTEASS
Serine/threonine-protein kinase pim-1, sequence (P11309 whole entry): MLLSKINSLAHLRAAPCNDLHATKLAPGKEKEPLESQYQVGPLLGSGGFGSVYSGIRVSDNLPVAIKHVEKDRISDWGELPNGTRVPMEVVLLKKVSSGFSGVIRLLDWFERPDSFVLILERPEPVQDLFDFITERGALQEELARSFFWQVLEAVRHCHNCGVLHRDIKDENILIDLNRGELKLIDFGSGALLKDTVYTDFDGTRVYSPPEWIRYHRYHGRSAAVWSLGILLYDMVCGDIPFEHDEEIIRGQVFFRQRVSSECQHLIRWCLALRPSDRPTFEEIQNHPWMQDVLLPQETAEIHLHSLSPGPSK
Calcium/calmodulin-dependent protein kinase type II subunit alpha, sequence (Q9UQM7 whole entry): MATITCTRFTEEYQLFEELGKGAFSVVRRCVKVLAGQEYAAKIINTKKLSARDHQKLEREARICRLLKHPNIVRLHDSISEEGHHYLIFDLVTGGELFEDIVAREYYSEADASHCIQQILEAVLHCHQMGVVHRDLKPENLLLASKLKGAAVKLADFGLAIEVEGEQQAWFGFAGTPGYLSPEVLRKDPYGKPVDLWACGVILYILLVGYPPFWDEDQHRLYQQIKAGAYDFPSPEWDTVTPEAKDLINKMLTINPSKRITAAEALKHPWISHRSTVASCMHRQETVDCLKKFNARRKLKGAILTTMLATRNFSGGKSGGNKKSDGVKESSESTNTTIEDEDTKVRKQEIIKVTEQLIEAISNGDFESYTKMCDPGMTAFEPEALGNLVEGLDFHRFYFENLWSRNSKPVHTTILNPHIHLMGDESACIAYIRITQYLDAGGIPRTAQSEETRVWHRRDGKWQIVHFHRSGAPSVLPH
Wee1-like protein kinase, sequence (P30291 whole entry): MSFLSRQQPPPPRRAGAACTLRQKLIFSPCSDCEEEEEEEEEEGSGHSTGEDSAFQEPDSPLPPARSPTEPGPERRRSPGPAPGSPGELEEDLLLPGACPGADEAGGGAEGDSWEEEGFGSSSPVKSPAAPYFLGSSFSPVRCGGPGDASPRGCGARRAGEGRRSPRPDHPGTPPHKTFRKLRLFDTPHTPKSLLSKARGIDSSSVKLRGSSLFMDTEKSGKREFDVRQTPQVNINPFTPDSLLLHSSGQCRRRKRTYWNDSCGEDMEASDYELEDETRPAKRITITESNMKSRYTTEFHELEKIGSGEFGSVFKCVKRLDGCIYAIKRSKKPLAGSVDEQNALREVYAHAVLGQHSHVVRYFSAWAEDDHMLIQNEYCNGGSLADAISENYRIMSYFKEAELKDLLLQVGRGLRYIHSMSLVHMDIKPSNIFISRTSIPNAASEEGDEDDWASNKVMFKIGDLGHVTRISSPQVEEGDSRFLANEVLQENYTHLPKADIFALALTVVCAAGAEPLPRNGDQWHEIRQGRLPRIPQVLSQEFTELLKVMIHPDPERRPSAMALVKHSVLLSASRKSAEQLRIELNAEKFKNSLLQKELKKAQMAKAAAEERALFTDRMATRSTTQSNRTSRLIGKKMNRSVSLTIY
Proto-oncogene tyrosine-protein kinase receptor Ret, sequence (P07949 whole entry): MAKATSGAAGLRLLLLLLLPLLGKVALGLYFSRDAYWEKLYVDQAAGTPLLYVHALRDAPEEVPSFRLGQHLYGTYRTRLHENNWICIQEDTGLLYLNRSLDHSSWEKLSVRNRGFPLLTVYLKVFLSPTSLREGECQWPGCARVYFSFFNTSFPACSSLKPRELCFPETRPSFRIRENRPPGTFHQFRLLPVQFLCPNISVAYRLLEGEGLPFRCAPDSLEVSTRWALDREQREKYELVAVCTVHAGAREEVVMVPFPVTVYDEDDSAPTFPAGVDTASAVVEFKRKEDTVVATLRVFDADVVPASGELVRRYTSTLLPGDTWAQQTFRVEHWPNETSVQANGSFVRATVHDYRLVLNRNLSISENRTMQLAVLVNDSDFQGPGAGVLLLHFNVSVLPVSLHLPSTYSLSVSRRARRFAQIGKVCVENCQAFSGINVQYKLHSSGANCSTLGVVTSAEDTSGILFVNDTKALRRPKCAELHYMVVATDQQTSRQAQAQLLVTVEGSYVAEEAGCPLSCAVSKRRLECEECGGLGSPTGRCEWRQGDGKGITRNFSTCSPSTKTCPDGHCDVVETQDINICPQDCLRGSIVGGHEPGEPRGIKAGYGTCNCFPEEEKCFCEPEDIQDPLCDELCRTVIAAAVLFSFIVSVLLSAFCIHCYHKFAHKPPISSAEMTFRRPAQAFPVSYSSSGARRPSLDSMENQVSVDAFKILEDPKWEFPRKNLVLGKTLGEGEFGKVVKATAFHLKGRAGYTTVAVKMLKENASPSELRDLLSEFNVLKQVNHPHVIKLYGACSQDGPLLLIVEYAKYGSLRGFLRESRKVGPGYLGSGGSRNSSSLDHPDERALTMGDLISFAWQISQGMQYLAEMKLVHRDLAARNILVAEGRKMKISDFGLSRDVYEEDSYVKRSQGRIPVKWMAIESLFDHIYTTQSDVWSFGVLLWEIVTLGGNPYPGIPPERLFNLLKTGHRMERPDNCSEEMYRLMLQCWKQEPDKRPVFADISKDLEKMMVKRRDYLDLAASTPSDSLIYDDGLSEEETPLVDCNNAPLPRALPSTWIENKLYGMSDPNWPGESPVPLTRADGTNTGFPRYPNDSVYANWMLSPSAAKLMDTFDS
Platelet-derived growth factor receptor alpha, sequence (P16234 whole entry): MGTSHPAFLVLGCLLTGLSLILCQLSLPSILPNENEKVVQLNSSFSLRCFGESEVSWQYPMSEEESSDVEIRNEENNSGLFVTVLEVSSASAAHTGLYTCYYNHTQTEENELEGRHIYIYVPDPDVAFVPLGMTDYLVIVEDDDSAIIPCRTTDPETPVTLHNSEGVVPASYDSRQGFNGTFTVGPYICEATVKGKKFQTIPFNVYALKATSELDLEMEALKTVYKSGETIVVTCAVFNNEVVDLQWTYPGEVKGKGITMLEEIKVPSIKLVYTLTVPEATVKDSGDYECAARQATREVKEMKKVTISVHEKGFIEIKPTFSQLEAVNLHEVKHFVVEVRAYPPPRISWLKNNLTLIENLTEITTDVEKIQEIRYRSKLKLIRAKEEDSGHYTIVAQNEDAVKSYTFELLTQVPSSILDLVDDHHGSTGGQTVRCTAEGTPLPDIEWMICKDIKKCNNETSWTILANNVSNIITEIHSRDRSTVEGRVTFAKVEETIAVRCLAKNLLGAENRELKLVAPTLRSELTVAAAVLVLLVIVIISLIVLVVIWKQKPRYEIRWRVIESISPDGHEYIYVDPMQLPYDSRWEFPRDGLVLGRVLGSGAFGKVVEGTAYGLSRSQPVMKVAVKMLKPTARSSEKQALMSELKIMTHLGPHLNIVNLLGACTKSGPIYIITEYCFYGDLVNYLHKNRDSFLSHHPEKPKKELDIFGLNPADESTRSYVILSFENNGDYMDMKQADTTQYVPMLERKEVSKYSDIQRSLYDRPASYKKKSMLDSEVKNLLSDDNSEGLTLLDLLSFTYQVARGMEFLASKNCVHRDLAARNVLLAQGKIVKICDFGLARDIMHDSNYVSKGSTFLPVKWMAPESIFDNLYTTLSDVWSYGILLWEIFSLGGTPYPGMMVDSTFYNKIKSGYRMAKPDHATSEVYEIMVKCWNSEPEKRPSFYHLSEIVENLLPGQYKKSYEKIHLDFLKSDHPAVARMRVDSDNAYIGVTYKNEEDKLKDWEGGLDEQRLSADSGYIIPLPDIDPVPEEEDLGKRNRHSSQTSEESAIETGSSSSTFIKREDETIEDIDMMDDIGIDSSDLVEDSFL
Melanin-concentrating hormone receptor 1, sequence (Q99705 whole entry): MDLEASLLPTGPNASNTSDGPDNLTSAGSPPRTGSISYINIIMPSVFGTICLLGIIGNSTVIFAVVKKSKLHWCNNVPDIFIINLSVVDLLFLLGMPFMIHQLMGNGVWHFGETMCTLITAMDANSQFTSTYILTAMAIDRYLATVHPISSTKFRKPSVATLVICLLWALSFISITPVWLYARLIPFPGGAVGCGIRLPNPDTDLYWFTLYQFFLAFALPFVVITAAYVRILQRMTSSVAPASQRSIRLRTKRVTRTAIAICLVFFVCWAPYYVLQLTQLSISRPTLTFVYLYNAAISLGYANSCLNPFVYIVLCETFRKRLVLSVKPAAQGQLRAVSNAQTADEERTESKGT

COc1ccc(Oc2c(Cl)cnn(Cc3cccc4ccccc34)c2=O)cc1OC
IC50 [1]: 1.44 µM (active)

CNCCONC(=O)c1ccc(F)c(F)c1Nc1ccc(I)cc1F
Ki [2]: 2 µM (active) | Ki [3]: 7.94 µM (active)

O=c1ncn2nc(Sc3ccc(F)cc3F)ccc2c1-c1c(Cl)cccc1Cl [NEFLAMAPIMOD]
Ki [4]: > 7.94 µM (inactive) | Ki [5]: > 7.94 µM (inactive) | Ki [6]: > 3.98 µM (inactive) | Ki [7]: > 10 µM (inactive)

COc1cc(N)c2ncccc2c1
IC50 (HEK293 [8]): 43.1 µM (inactive) | IC50 (Jurkat): 76.2 µM (inactive) | IC50 (HEK293 [9]): > 79 µM (inactive)

CCNc1nc(C)c(-c2ccnc(Nc3ccc(N4CCNCC4)cc3)n2)s1
Ki (Wee1-like protein kinase): 0.0794 µM (active) | Ki [10]: 0.2 µM (active)

CCN(CCN(C)C)C(=O)c1cccc(-n2nc(C(C)(C)C)cc2NC(=O)Nc2cccc3ccccc23)c1
Ki [11]: 3.16 µM (active) | Ki [12]: 1.26 µM (active) | Ki [13]: 3.16 µM (active) | Ki [14]: > 7.94 µM (inactive) | Ki [15]: 1.58 µM (active)

COc1ccccc1NC(=S)NN=C(C)c1ccccn1
AC50 [16]: 0.638 µM (active) | IC50 (Nonstructural protein 1): 25.8 µM (active) | EC50 (Hexokinase HKDC1): 3.03 µM (active) | EC50 (Hexokinase-1): > 80 µM (inactive)

CCOc1ccc(NC(=O)CSc2nc(O)c(C)c(=O)n2-c2ccc(F)cc2)cc1
IC50 [17]: > 25 µM (active)

Cc1[nH]c2ccccc2c1/C=N/NC(=O)c1cc2ccccc2cc1O
IC50 [18]: 95.7 µM (active) | IC50 [19]: 83.4 µM (active) | IC50 (Caspase-3): > 99 µM (inactive) | IC50 [20]: 79.4 µM (active)
